Measurements published in patent US20110124589A1, “INHALED FOSFOMYCIN/TOBRAMYCIN FOR THE TREATMENT OF CHRONIC OBSTRUCTIVE PULMONARY DISEASE” (Gilead Sciences, Inc., priority 2009, published 2011).
Converted amounts (≈) assume the structure as drawn. Read-outs that look alike come from different tables or passages of the source.

What was measured:
[1] = tested on: S. aureus; conditions: 16 isolates; agar dilution; cited from earlier work
[2] = tested on: P. aeruginosa; experiment: MIC, agar-plate dilution with 2% porcine gastric mucin (Method B); assay type: cell-based; conditions: Pseudomonas aeruginosa; 100 P. aeruginosa strains from cystic fibrosis lung sputum; 2% mucin
Experimental: Bacterial strains were streaked onto […] […] Louis, Mo.). […] Louis, Mo.). […] Methodologies were identical to that described in Method A above, with the exception that 2% (weight/volume) porcine gastric mucin (Sigma Chemical Co., St. Louis, Mo.) was added to the MHA prior to autoclaving.

[3] = tested on: H. influenzae; experiment: MIC of recent clinical isolates, agar dilution (CMI study); assay type: cell-based; conditions: Haemophilus influenzae
[4] = tested on: S. pneumoniae; experiment: as above; assay type: cell-based
[5] = tested on: M. catarrhalis; experiment: as above; assay type: cell-based; conditions: Moraxella catarrhalis; 103 isolates
[6] = tested on: S. aureus; experiment: as above; assay type: cell-based; conditions: Staphylococcus aureus
[7] = tested on: P. aeruginosa ATCC 27853; experiment: Time-kill experiments in 2% porcine gastric mucin; assay type: cell-based; conditions: 2% mucin; for activity at 24 hours in time-kill curves (FIG. 2): 12.8 μg/mL fosfomycin, 3.2 μg/mL tobramycin, or both; for killing activity in time-kill curves (FIG. 2): 4×MIC: 12.8 μg/mL fosfomycin + 3.2 μg/mL tobramycin vs the components alone; for killing activity in time-kill curves (FIG. 1): 9:1 combination (fosfomycin 14.4 μg/mL + tobramycin 1.6 μg/mL) vs the components alone
Experimental: These studies were previously reported in PCT Publication no. WO2005/110022 to Gilead Sciences, Inc. (formerly Carus Pharma). Two to three bacterial colonies were inoculated into 10 mL CAMHB and incubated at 35° C. in a shaking water bath (250 rpm) for 18-24 hours. A 1:40 dilution of the overnight culture was made in 10 mL of fresh CAMHB and incubated at 35° C. in a shaking water bath (250 rpm) for 1-2 hours. […] Ten milliliter aliquots were then pipeted into 50 mL conical tubes. […] The killing activity of fosfomycin plus tobramycin was also compared to the killing activity of the individual components. […] A no drug control was conducted in each experiment. […] Bacterial killing was determined at 0, 1, 2, 4, 6, and 24 hours by making 10-fold serial dilutions of the cultures in sterile normal saline, and spreading 100 μl aliquots on blood agar plates. […] The limit of detection for the colony counting method was 1 Log10. Time-kill curves were constructed by plotting the Log10 number of CFU/mL culture versus time.

[8] = tested on: P. aeuriginosa; experiment: Dose-response time-kill studies in 2% mucin; assay type: cell-based; conditions: for bactericidal or bacteriostatic / time-dependent or concentration-dependent killing: 2% mucin (FIGS. 4-6)
[9] = Sputum drug concentrations following aerosolization of FTI; assay type: in vivo, human; conditions: for sputum concentration range for patient type and dose: both FTI doses, CF and bronchiectasis patients; for Cmax: human, sputum, inhaled
Experimental: In order to assess the amount of drug delivered to the respiratory track, drug concentration was measured in expectorated sputum for patients with CF or bronchiectasis. The fosfomycin and tobramycin range for patient type and dose was 1751-2974 μg/g and 326-881 μg/g, respectively.

[10] = tested on: S. pneumoniae; conditions: 8 isolates; agar dilution; cited from earlier work
[11] = tested on: S. pyogenes; conditions: 5 isolates; broth microdilution; cited from earlier work
[12] = tested on: H. influenzae; conditions: 16 isolates; agar dilution; cited from earlier work
[13] = tested on: Klebsiella spp.; conditions: 22 isolates; broth microdilution; cited from earlier work
[14] = tested on: M. catarrhalis; conditions: 5 isolates; agar dilution; cited from earlier work
[15] = tested on: P. aeruginosa; conditions: agar dilution, cited from earlier work
[16] = tested on: B. cepacia complex; conditions: 20 isolates; agar dilution; cited from earlier work
[17] = tested on: S. aureus; conditions: cited from earlier work; for Range of MBC/MIC: 10 strains
[18] = tested on: E. coli; conditions: cited from earlier work; for Range of MBC/MIC: 10 strains
[19] = tested on: Klebsiella spp.; conditions: cited from earlier work; for Range of MBC/MIC: 5 strains
[20] = tested on: H. influenzae; conditions: cited from earlier work; for Range of MBC/MIC: 6 strains
[21] = tested on: P. aeruginosa ATCC 27853; experiment: MBC/MIC, broth microdilution
Experimental: The MBCs of fosfomycin and tobramycin alone for P. aeruginosa ATCC 27853, E. coli ATCC 25922, and S. aureus ATCC 29213 were determined by the broth microdilution method according to NCCLS standards (NCCLS, 1999). […] Bacterial strains were streaked onto blood agar plates and incubated at 35° C. for 18-24 hours. Two to three bacterial colonies from the overnight cultures were inoculated into 3 mL of sterile normal saline, vortexed briefly, and adjusted to a 0.5 McFarland standard (NCCLS, 2003). Fifty microliters of bacterial inoculum (approximately 2×10^5 CFU/mL) was pipeted into individual wells of 96-well plates containing 50 μl of CAMHB (Remel, Lenexa, Kanas) supplemented with 2-fold dilutions of antibiotics ranging in concentration from 0.125 μg/mL to 128 μg/mL. […] The contents of wells showing no growth (MIC and above) were mixed with a pipetor and duplicate 10 μl samples spread onto blood agar plates. Culture plates were incubated at 35° C. for 18-24 hours and the number of bacterial colonies on each plate enumerated manually. Rejection values were determined by NCCLS methods which considers the final inoculum size, single or double sampling, pipetting error, and the Poisson distributuion of sample responses (NCCLS, 1999). […] The MBC/MIC ratios were calculated by dividing the MBC by the MIC.

[22] = tested on: P. aeruginosa C177; experiment: Rat bacterial pneumonia model
Experimental: Animals were handled according to the guidelines for the Care and use of Laboratory Animals. […] All animal protocols were approved by an IRB/Ethics Committee. Male Sprague-Dawley rats (180-200 g) were obtained from Charles River Laboratories (Hollister, Calif., USA) and acclimatized for 5 days prior to use. Animals were housed individually in ventilated cages, fed Purina Lab Diet ad libitum and allowed free access to water.
Antibiotic efficacy was determined using a rat bacterial pneumonia model. […] Rats were anaesthetized with isoflurane, and ˜10^3 cfu of P. aeruginosa C177 in 2% agar solution were instilled into the lungs with an oral gavage needle. The inoculum was deposited at the first bifurcation and distributed throughout the lungs by inspiration. Animals were allowed to recover for 18 hr post-infection. Each experiment consisted of pre-treatment (n=5-7), saline control with isoflurane, and 100 μL of antibiotic solution or saline was instilled in the trachea using a Microsprayer™ (Penn-Century In., Philadelphia, Pa., USA). Antibiotics were administered intratracheally twice daily for 3 days.
Animals were euthanized by intraperitoneal administration of sodium pentobarbital. The pre-treatment control group was harvested 18 hr post-infection, and the saline and treatment groups 18 hr after the last antibiotic exposure. Lungs were removed aseptically, homogenized in sterile normal saline and viable bacteria determined by the colony count method. Statistical differences between the saline control group and treatment groups were evaluated by the Mann-Whitney Rank Sum Test using GraphPad Prism® software package version 3.03 (GraphPad Software, Inc., San Diego, Calif., USA).

[23] = tested on: H. influenzae; experiment: MIC, agar-plate dilution (Method A)
Experimental: (§1) The efficacy of antibiotics and antibiotic combinations against Gram-positive and Gram-negative bacteria representative of species that cause respiratory infections were evaluated in MIC assays. […] H. influenzae, M. catarrhalis, and S. aureus, were isolated from respiratory tract infections. E. coli ATCC 25922, P. aeruginosa ATCC 27853, and S. aureus ATCC 29213 were used as quality control stains.
(§2) Method A: The MICs of fosfomycin alone, tobramycin alone, or combinations of fosfomycin plus tobramycin were determined by the agar-plate dilution method according to NCCLS guidelines (NCCLS, 2003). Bacterial strains were streaked onto Trypic Soy Agar plates (PML Microbiologicals, Wilsonville, Oreg.) containing 5% defibrinated sheep blood (hereafter referred to as blood agar plates) and incubated overnight at 35° C. Two to three bacterial colonies from the overnight cultures were inoculated into 3 mL of sterile normal saline, vortexed briefly, and adjusted to a 0.5 McFarland standard (NCCLS, 2003). The bacterial suspension was diluted 1:40 in sterile normal saline and served as the inoculum. Mueller-Hinton agar plates (hereafter referred to as MHA) were prepared by combining 16 g of agarose (Becton-Dickinson, Sparks, Md.), 22 g of Mueller-Hinton broth powder (Becton-Dickinson, Sparks, Md.), and adjusted to 1 L with distilled water. The agar was sterilized by autoclaving, cooled to 55° C., and supplemented with 25 μg/mL of glucose-6-phosphate (Sigma-Aldrich, St. Louis, Mo.). Twenty-five mL of cooled agar was aliquoted into 50 mL conical tubes and supplemented with appropriate concentrations of antibiotic to achieve concentrations ranging from 0.06 μg/mL to 512 μg/mL. After gently mixing the agar and antibiotic, the suspension was poured into sterile 100 mm petri dishes and allowed to solidify at room temperature. The antibiotic agar plates were inoculated with approximately 2×10^4 CFU/spot with a 48-point inoculator (Sigma-Aldrich, St. Louis, Mo.). The MIC was defined as the lowest concentration of antibiotic (s) that prevented visible growth after incubation for 18-20 hours at 35° C.

[24] = tested on: S. aureus; experiment: MIC, agar-plate dilution (Method A)
Experimental: as §1, §2

[25] = tested on: S. pneumoniae; experiment: MIC, agar-plate dilution (Method A); conditions: Streptococcus pneumoniae
Experimental: as §1, §2

[26] = Penicillin resistant, 32 isolates
[27] = Streptococcus pneumoniae, Penicillin resistant, 32 isolates
[28] = Streptococcus pneumoniae, penicillin suscept., 39 isolates
[29] = Streptococcus pneumoniae, penicillin suscept., 39 isolates, read-out: MIC50
[30] = 20 mg, patients with Bronchiectasis, aerosolized 80:20 mg FTI
[31] = 20 mg, patients with Cystic Fibrosis, aerosolized 80:20 mg FTI
[32] = 40 mg, patients with Bronchiectasis, aerosolized 160:40 mg FTI
[33] = 40 mg, patients with Cystic Fibrosis, aerosolized 160:40 mg FTI

Compound: O=C(O)c1cn(C2CC2)c2cc(N3CCNCC3)c(F)cc2c1=O [ciprofloxacin]
- MIC50 [1]: > 4 mg/L

Compound: CN[C@H](CC(C)C)C(=O)N[C@H]1C(=O)N[C@@H](CC(N)=O)C(=O)N[C@H]2C(=O)N[C@H]3C(=O)N[C@H](C(=O)N[C@H](C(=O)O)c4cc(O)cc(O)c4-c4cc3ccc4O)[C@H](O)c3ccc(c(Cl)c3)Oc3cc2cc(c3O[C@@H]2O[C@H](CO)[C@@H](O)[C@H](O)[C@H]2O[C@H]2C[C@](C)(N)[C@H](O)[C@H](C)O2)Oc2ccc(cc2Cl)[C@H]1O [vancomycin]
- MIC50 [1]: 1 mg/L (≈ 0.69 µM)

Compound: NC[C@H]1O[C@H](O[C@H]2[C@H](O)[C@@H](O[C@H]3O[C@H](CO)[C@@H](O)[C@H](N)[C@H]3O)[C@H](N)C[C@@H]2N)[C@H](N)C[C@@H]1O [Tobramycin]
- MIC50 [2]: 16 mg/L (≈ 34.2 µM)
- MIC90 [2]: 64 mg/L (≈ 137 µM)
- MIC50 ([3]; β-lactamase neg, 62 isolates): 4 mg/L
- MIC90 ([3]; β-lactamase neg, 62 isolates): 8 mg/L
- MIC50 ([3]; β-lactamase pos, 39 isolates): 4 mg/L
- MIC90 ([3]; β-lactamase pos, 39 isolates): 4 mg/L
- MIC50 [4, 26]: 32 mg/L
- MIC90 [4, 27]: > 32 mg/L
- MIC90 [4, 28]: > 32 mg/L
- MIC50 [4, 29]: 32 mg/L
- MIC50 [5]: 0.12 mg/L
- MIC90 [5]: 0.25 mg/L
- MIC50 ([6]; MRSA, 103 isolates): 0.5 mg/L
- MIC90 ([6]; MRSA, 103 isolates): > 32 mg/L
- MIC50 ([6]; MSSA, 104 isolates): 0.25 mg/L
- MIC90 ([6]; MSSA, 104 isolates): 0.5 mg/L
- activity at 24 hours in time-kill curves (FIG. 2) [7]: re-growth was observed
- killing activity in time-kill curves (FIG. 2) [7]: bacteriostatic activity
- killing activity in time-kill curves (FIG. 1) [7]: bacteriostatic killing
- bactericidal or bacteriostatic [8]: rapidly bactericidal
- time-dependent or concentration-dependent killing [8]: concentration-dependent killing
- re-growth within 24 hours ([8]; 2% mucin (FIGS. 5-6)): re-growth occurred within 24 hours
- sputum concentration range for patient type and dose [9]: 326 to 881 µg/g
- Cmax [9, 30]: 326000 ng/g
- Cmax [9, 31]: 580000 ng/g
- Cmax [9, 32]: 587000 ng/g
- Cmax [9, 33]: 881000 ng/g
- MIC range [10]: 16 to 64 mg/L
- MIC range [11]: 16 to 64 mg/L
- MIC50 [12]: 1 mg/L (≈ 2.14 µM)
- MIC90 [12]: 1 mg/L (≈ 2.14 µM)
- MIC range [12]: 0.5 to 1 mg/L
- MIC50 [13]: 0.13 mg/L (≈ 0.278 µM)
- MIC90 [13]: 16 mg/L (≈ 34.2 µM)
- MIC range [14]: 0.5 to 1 mg/L
- MIC50 ([15]; CF, 100 isolates): 2 mg/L (≈ 4.28 µM)
- MIC90 ([15]; CF, 100 isolates): 16 mg/L (≈ 34.2 µM)
- MIC50 ([15]; non-CF, 60 isolates): 1 mg/L (≈ 2.14 µM)
- MIC90 ([15]; non-CF, 60 isolates): 128 mg/L (≈ 274 µM)
- MIC50 [16]: 64 mg/L (≈ 137 µM)
- MIC90 [16]: 512 mg/L (≈ 1100 µM)
- Range of MBC/MIC [17]: 1-2
- strains against which bactericidal [17]: 100%
- Range of MBC/MIC [18]: 1-4
- strains against which bactericidal [18]: 100%
- Range of MBC/MIC [19]: 1-4
- strains against which bactericidal [19]: 100%
- Range of MBC/MIC [20]: 1-2
- strains against which bactericidal [20]: 100%
- MBC/MIC [21]: 1
- reduction in lung burden ([22]; 1 mg/kg of tobramycin alone (FIG. 11)): ~500 fold
- bacterial killing in rat lung ([22]; 2.5 mg/kg intratracheally twice daily for 3 days (FIG. 11)): 3 Log10
- eradication of P. aeruginosa infection ([22]; doses higher than 3 mg/kg intratracheally): complete eradication
- bacterial killing in rat lung ([22]; doses=0.5 mg/kg intratracheally): did not result in bacterial killing
- MIC ([23]; Haemophilus influenzae): 0.5 mg/L (≈ 1.07 µM)
- MIC ([23]; strain COR-049): 0.5 mg/L (≈ 1.07 µM)
- MIC ([24]; Staphylococcus aureus): 64 mg/L (≈ 137 µM)
- MIC ([24]; Staphylococcus aureus, MRSA): 0.25 mg/L (≈ 0.535 µM)
- MIC ([24]; Staphylococcus aureus, MSSA): 0.25 mg/L (≈ 0.535 µM)
- MIC ([24]; Staphylococcus aureus, strain COR-059): 128 mg/L (≈ 274 µM)
- MIC ([25]; strain COR-061): 64 mg/L (≈ 137 µM)
- MIC ([25]; strain COR-068): 16 mg/L (≈ 34.2 µM)

Compound: C[C@@H]1O[C@@H]1P(=O)(O)O [Fosfomycin]
- MIC50 [2]: 64 mg/L (≈ 464 µM)
- MIC90 [2]: 128 mg/L (≈ 927 µM)
- MIC50 ([3]; β-lactamase neg, 62 isolates): 0.25 mg/L
- MIC90 ([3]; β-lactamase neg, 62 isolates): 8 mg/L
- MIC50 ([3]; β-lactamase pos, 39 isolates): 0.5 mg/L
- MIC90 ([3]; β-lactamase pos, 39 isolates): 2 mg/L
- MIC50 [4, 26]: 16 mg/L
- MIC90 [4, 27]: 32 mg/L
- MIC90 [4, 28]: 16 mg/L
- MIC50 [4, 29]: 16 mg/L
- MIC50 [5]: 8 mg/L
- MIC90 [5]: 16 mg/L
- MIC50 ([6]; MRSA, 103 isolates): 4 mg/L
- MIC90 ([6]; MRSA, 103 isolates): 8 mg/L
- MIC50 ([6]; MSSA, 104 isolates): 4 mg/L
- MIC90 ([6]; MSSA, 104 isolates): 4 mg/L
- activity at 24 hours in time-kill curves (FIG. 2) [7]: re-growth was observed
- killing activity in time-kill curves (FIG. 2) [7]: bacteriostatic activity
- killing activity in time-kill curves (FIG. 1) [7]: bacteriostatic killing
- bactericidal or bacteriostatic [8]: bacteriostatic
- time-dependent or concentration-dependent killing [8]: time-dependent killing
- sputum concentration range for patient type and dose [9]: 1751 to 2974 µg/g
- Cmax [9, 30]: 1.75e+06 ng/g
- Cmax [9, 31]: 2.07e+06 ng/g
- Cmax [9, 32]: 1.98e+06 ng/g
- Cmax [9, 33]: 2.97e+06 ng/g
- MIC range [10]: 8 to 32 mg/L
- MIC range [11]: 16 to 64 mg/L
- MIC50 [12]: 0.5 mg/L (≈ 3.62 µM)
- MIC90 [12]: 2 mg/L (≈ 14.5 µM)
- MIC range [12]: 0.25 to 4 mg/L
- MIC50 [13]: 4 mg/L (≈ 29 µM)
- MIC90 [13]: 16 mg/L (≈ 116 µM)
- MIC range [13]: 0.5-16^ mg/L
- MIC range [14]: 4 to 16 mg/L
- MIC50 ([15]; CF, 100 isolates): 64 mg/L (≈ 464 µM)
- MIC90 ([15]; CF, 100 isolates): 512 mg/L (≈ 3710 µM)
- MIC50 ([15]; non-CF, 60 isolates): 32 mg/L (≈ 232 µM)
- MIC90 ([15]; non-CF, 60 isolates): 128 mg/L (≈ 927 µM)
- MIC50 [16]: >512 mg/L
- MIC90 [16]: >512 mg/L
- Range of MBC/MIC [17]: 1-8
- strains against which bactericidal [17]: 80%
- Range of MBC/MIC [18]: 1-8
- strains against which bactericidal [18]: 90%
- Range of MBC/MIC [19]: 1-4
- strains against which bactericidal [19]: 100%
- Range of MBC/MIC [20]: 1-8
- strains against which bactericidal [20]: 83%
- MBC/MIC [21]: =8
- reduction in cfu/lung ([22]; =10 mg/kg intratracheally (FIG. 12)): not observed
- MIC ([23]; Haemophilus influenzae): 8 mg/L (≈ 57.9 µM)
- MIC ([23]; Haemophilus influenzae, strain COR-049): 128 mg/L (≈ 927 µM)
- MIC ([24]; Staphylococcus aureus): 2 mg/L (≈ 14.5 µM)
- MIC ([24]; Staphylococcus aureus, MRSA): 4 mg/L (≈ 29 µM)
- MIC ([24]; Staphylococcus aureus, MSSA): 1 mg/L (≈ 7.24 µM)
- MIC ([24]; strain COR-060 (GISA)): 2 mg/L (≈ 14.5 µM)
- MIC ([25]; strain COR-061): 32 mg/L (≈ 232 µM)
- MIC ([25]; strain COR-068): 8 mg/L (≈ 57.9 µM)
